Data as given in PubChem BioAssay (NCI).
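GI50 is the concentration that inhibits growth by half. The concentration for full growth arrest is given as TGI.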

How the values were obtained:
Assay in all cases: NCI-60 cell line screen, 384-well format
HCC-2998 colon = test system: HCC-2998 colon
DU-145 prostate = test system: DU-145 prostate
IGROV1 ovarian = test system: IGROV1 ovarian
HOP-92 NSCLC = test system: HOP-92 NSCLC
UO-31 renal = test system: UO-31 renal
OVCAR-3 ovarian = test system: OVCAR-3 ovarian
TK-10 renal = test system: TK-10 renal
MALME-3M melanoma = test system: MALME-3M melanoma
SN12C renal = test system: SN12C renal
MDA-MB-468 breast = test system: MDA-MB-468 breast
MDA-MB-231 breast = test system: MDA-MB-231 breast
T-47D breast = test system: T-47D breast
SK-MEL-5 melanoma = test system: SK-MEL-5 melanoma
UACC-62 melanoma = test system: UACC-62 melanoma
M14 melanoma = test system: M14 melanoma
ACHN renal = test system: ACHN renal
HS 578T breast = test system: HS 578T breast
A498 renal = test system: A498 renal
786-0 renal = test system: 786-0 renal
SF-295 CNS = test system: SF-295 CNS
MCF7 breast = test system: MCF7 breast
SF-268 CNS = test system: SF-268 CNS
BT-549 breast = test system: BT-549 breast
SF-539 CNS = test system: SF-539 CNS
SK-MEL-28 melanoma = test system: SK-MEL-28 melanoma
NCI-H522 lung = test system: NCI-H522 lung
KM12 colon = test system: KM12 colon
CAKI-1 renal = test system: CAKI-1 renal
UACC-257 melanoma = test system: UACC-257 melanoma
RPMI-8226 leukemia = test system: RPMI-8226 leukemia
MOLT-4 leukemia = test system: MOLT-4 leukemia
COLO 205 colon = test system: COLO 205 colon
HL-60(TB) leukemia = test system: HL-60(TB) leukemia
EKVX NSCLC = test system: EKVX NSCLC
RXF 393 renal = test system: RXF 393 renal
HCT-116 colon = test system: HCT-116 colon
SR leukemia = test system: SR leukemia
LOX IMVI melanoma = test system: LOX IMVI melanoma
OVCAR-5 ovarian = test system: OVCAR-5 ovarian
HCT-15 colon = test system: HCT-15 colon
HOP-62 NSCLC = test system: HOP-62 NSCLC
NCI-H322M lung = test system: NCI-H322M lung
HT29 colon = test system: HT29 colon
A549 NSCLC = test system: A549 NSCLC

CCOc1cc2ncc(C#N)c(Nc3ccc(OCc4ccccn4)c(Cl)c3)c2cc1NC(=O)/C=C/CN(C)C was tested, and the GI50 (HCC-2998 colon) was 1260 nM, the TGI (HCC-2998 colon) was 2520 nM and the GI50 (DU-145 prostate) was 143 nM. For the same compound, the TGI (DU-145 prostate) was 1420 nM, the GI50 (IGROV1 ovarian) was 25.9 nM and the TGI (IGROV1 ovarian) was 320 nM. It also gave a GI50 (HOP-92 NSCLC) of 351 nM, a TGI (HOP-92 NSCLC) of 1620 nM and a GI50 (UO-31 renal) of 267 nM. For the same compound, the TGI (UO-31 renal) was over 100000 nM, the GI50 (OVCAR-3 ovarian) was 148 nM and the TGI (OVCAR-3 ovarian) was over 100000 nM. It also gave a GI50 (TK-10 renal) of 71 nM, a TGI (TK-10 renal) of over 100000 nM and a GI50 (MALME-3M melanoma) of 188 nM. For the same compound, the TGI (MALME-3M melanoma) was 808 nM, the GI50 (SN12C renal) was 140 nM and the TGI (SN12C renal) was over 100000 nM. For the same compound, the GI50 (MDA-MB-468 breast) was under 10 nM, the TGI (MDA-MB-468 breast) was 29 nM and the GI50 (MDA-MB-231 breast) was 754 nM. The TGI (MDA-MB-231 breast) was 2000 nM, the GI50 (T-47D breast) was under 10 nM and the TGI (T-47D breast) was over 100000 nM. It also gave a GI50 (SK-MEL-5 melanoma) of 183 nM, a TGI (SK-MEL-5 melanoma) of 474 nM and a GI50 (UACC-62 melanoma) of 405 nM. The TGI (UACC-62 melanoma) was over 100000 nM, the GI50 (M14 melanoma) was 276 nM and the TGI (M14 melanoma) was 1180 nM. It also gave a GI50 (ACHN renal) of 61.1 nM, a TGI (ACHN renal) of 1220 nM and a GI50 (HS 578T breast) of 220 nM. It also gave a TGI (HS 578T breast) of 848 nM, a GI50 (A498 renal) of 89.6 nM and a TGI (A498 renal) of 1220 nM. The GI50 (786-0 renal) was 251 nM, the TGI (786-0 renal) was 1230 nM and the GI50 (SF-295 CNS) was over 100000 nM. For the same compound, the TGI (SF-295 CNS) was over 100000 nM, the GI50 (MCF7 breast) was 881 nM and the TGI (MCF7 breast) was 2100 nM. The GI50 (SF-268 CNS) was 311 nM, the TGI (SF-268 CNS) was over 100000 nM and the GI50 (BT-549 breast) was 396 nM. It also gave a TGI (BT-549 breast) of 1520 nM, a GI50 (SF-539 CNS) of 2170 nM and a TGI (SF-539 CNS) of over 100000 nM. The GI50 (SK-MEL-28 melanoma) was over 100000 nM, the TGI (SK-MEL-28 melanoma) was over 100000 nM and the GI50 (NCI-H522 lung) was under 10 nM. For the same compound, the TGI (NCI-H522 lung) was 63.3 nM, the GI50 (KM12 colon) was 1200 nM and the TGI (KM12 colon) was 2450 nM. It also gave a GI50 (CAKI-1 renal) of 98.7 nM, a TGI (CAKI-1 renal) of 759 nM and a GI50 (UACC-257 melanoma) of 2150 nM. It also gave a TGI (UACC-257 melanoma) of over 100000 nM, a GI50 (RPMI-8226 leukemia) of 242 nM and a TGI (RPMI-8226 leukemia) of 515 nM. It also gave a GI50 (MOLT-4 leukemia) of 207 nM, a TGI (MOLT-4 leukemia) of 511 nM and a GI50 (COLO 205 colon) of 3670 nM. The TGI (COLO 205 colon) was over 100000 nM, the GI50 (HL-60(TB) leukemia) was 197 nM and the TGI (HL-60(TB) leukemia) was 639 nM. The GI50 (EKVX NSCLC) was 41.8 nM, the TGI (EKVX NSCLC) was 1240 nM and the GI50 (RXF 393 renal) was 143 nM. It also gave a TGI (RXF 393 renal) of 598 nM, a GI50 (HCT-116 colon) of 473 nM and a TGI (HCT-116 colon) of 1670 nM. For the same compound, the GI50 (SR leukemia) was 530 nM, the TGI (SR leukemia) was 876 nM and the GI50 (LOX IMVI melanoma) was 969 nM. The TGI (LOX IMVI melanoma) was 2150 nM, the GI50 (OVCAR-5 ovarian) was 864 nM and the TGI (OVCAR-5 ovarian) was over 100000 nM. For the same compound, the GI50 (HCT-15 colon) was 349 nM, the TGI (HCT-15 colon) was 1500 nM and the GI50 (HOP-62 NSCLC) was 1130 nM. For the same compound, the TGI (HOP-62 NSCLC) was 2350 nM, the GI50 (NCI-H322M lung) was 14.9 nM and the TGI (NCI-H322M lung) was 53 nM. For the same compound, the GI50 (HT29 colon) was 1230 nM, the TGI (HT29 colon) was 2490 nM and the GI50 (A549 NSCLC) was 312 nM. For the same compound, the TGI (A549 NSCLC) was 1740 nM.
